Tests used:
Assay type in all cases: cell-based, human
MYB [1] = assay: HiBiT protein abundance assay, MYB; details: Homo sapiens, K562, 24 h, Table 13A, modified K562 cells
How it was run: (§1)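 HiBiT-tagged endogenous targets in K562 cells treated 24 h at 37° C. with 10-point 3-fold dilutions (top 10 μM, DMSO ≤0.25%). Luminescence read after lytic LgBiT detection; response normalised to unmodified-cell and DMSO controls, IC50 interpolated at 50% from four-parameter logistic fit.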

HTT [2] = assay: HiBiT protein abundance assay, HTT; details: Homo sapiens, K562, 24 h, Table 13A, modified K562 cells
How it was run: as §1

HTT [3] = assay: Splicing RT-qPCR assay, HTT mRNA canonical junction (CJ) and alternative junction (AJ); details: Homo sapiens; for AC50: increase in AJ mRNA
How it was run: (§2)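 Splice switching is measured in A673 or K562 cells after 24 h compound exposure (maximum 10 uM, 3-fold steps). Canonical and alternative junction mRNA levels are quantified by RT-qPCR relative to housekeeper and DMSO.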

MYB [4] = assay: Splicing RT-qPCR assay, MYB mRNA canonical junction (CJ) and alternative junction (AJ); details: Homo sapiens; for AC50: increase in AJ mRNA
How it was run: as §2

SMN2 = assay: Splicing RT-qPCR panel, SMN2 canonical junction (CJ) mRNA; details: Homo sapiens, RT-qPCR panel, canonical junction mRNA; compound concentration having 50% response in CJ decrease; read-out: SMN2 IC50 (decrease in CJ mRNA levels)
How it was run: as §2

Target C [5] = assay: Splicing RT-qPCR panel, Target C canonical junction (CJ) mRNA; details: Homo sapiens, RT-qPCR panel, canonical junction mRNA; compound concentration having 50% response in CJ decrease; read-out: Target C IC50 (decrease in CJ mRNA levels)
How it was run: as §2

Target C [6] = assay: HiBiT protein abundance assay, Target C; details: Homo sapiens, K562, 24 h, Table 13A, modified K562 cells
How it was run: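 HiBiT knock-in K562-derived cells seeded at 10000/well and treated with 10-point 3-fold dilutions (top final 10 μM, ≤0.25% DMSO) for 24 h at 37 °C. Lytic HiBiT luminescence normalised to unmodified-cell and DMSO controls; IC50 from 4-parameter fit at 50% abundance.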

[7] = 24 h, decrease in CJ mRNA, A673 or K562 cells, 24 hours treatment, RT-qPCR, read-out: HTT CJ IC50
[8] = 24 h, A673 or K562 cells, 24 hours treatment, RT-qPCR
[9] = RT-qPCR panel, canonical junction mRNA, compound concentration having 50% response in CJ decrease, read-out: HTT IC50 (decrease in CJ mRNA levels)
[10] = 24 h, decrease in CJ mRNA, A673 or K562 cells, 24 hours treatment, RT-qPCR, read-out: MYB CJ IC50
[11] = RT-qPCR panel, canonical junction mRNA, compound concentration having 50% response in CJ decrease, read-out: MYB IC50 (decrease in CJ mRNA levels)

## CCN(c1ccc(-c2ccc(-c3cn[nH]c3)c3ncsc23)nn1)C1CCNCC1 [Compound 224]
MYB [1]
  IC50: 100 to 1000 nM
HTT [2]
  IC50: 1000 to 10000 nM
HTT [3]; [7]
  IC50: > 10000 nM
HTT [3]; [8]
  AC50: > 10000 nM
HTT [3]; [9]
  IC50: > 10000 nM
MYB [4]; [10]
  IC50: 1000 to 10000 nM
MYB [4]; [8]
  AC50: > 10000 nM
MYB [4]; [11]
  IC50: 1000 to 10000 nM
SMN2
  IC50: 1000 to 10000 nM
Target C [5]
  IC50: > 10000 nM
Target C [6]
  IC50: 1000 to 10000 nM

## CCN(c1ccc(-c2ccc(-c3cn[nH]c3)c3ncsc23)nn1)C1CC(C)(C)NC(C)(C)C1 [Compound 225]
MYB [1]
  IC50: 100 to 1000 nM
HTT [2]
  IC50: 100 to 1000 nM
HTT [3]; [7]
  IC50: 1000 to 10000 nM
HTT [3]; [8]
  AC50: 1000 to 10000 nM
HTT [3]; [9]
  IC50: 1000 to 10000 nM
MYB [4]; [10]
  IC50: 100 to 1000 nM
MYB [4]; [8]
  AC50: > 10000 nM
MYB [4]; [11]
  IC50: 100 to 1000 nM
SMN2
  IC50: 100 to 1000 nM
Target C [5]
  IC50: 1000 to 10000 nM
Target C [6]
  IC50: 1000 to 10000 nM

## c1n[nH]cc1-c1ccc(-c2ccc(N3CC4(CCNCC4)C3)nn2)c2[nH]ncc12 [Compound 229]
MYB [1]
  IC50: 1000 to 10000 nM
HTT [2]
  IC50: 1000 to 10000 nM
HTT [3]; [7]
  IC50: 1000 to 10000 nM
HTT [3]; [8]
  AC50: 1000 to 10000 nM
HTT [3]; [9]
  IC50: 1000 to 10000 nM
MYB [4]; [10]
  IC50: 1000 to 10000 nM
MYB [4]; [8]
  AC50: 1000 to 10000 nM
MYB [4]; [11]
  IC50: 1000 to 10000 nM
SMN2
  IC50: 1000 to 10000 nM
Target C [5]
  IC50: 1000 to 10000 nM
Target C [6]
  IC50: 1000 to 10000 nM

## c1n[nH]cc1-c1ccc(-c2ccc(OC3CCNCC3)nn2)c2[nH]ncc12 [Compound 230]
MYB [1]
  IC50: 1000 to 10000 nM
HTT [2]
  IC50: 1000 to 10000 nM
HTT [3]; [7]
  IC50: > 10000 nM
HTT [3]; [8]
  AC50: > 10000 nM
HTT [3]; [9]
  IC50: > 10000 nM
MYB [4]; [10]
  IC50: > 10000 nM
MYB [4]; [8]
  AC50: > 10000 nM
MYB [4]; [11]
  IC50: > 10000 nM
SMN2
  IC50: 1000 to 10000 nM
Target C [5]
  IC50: > 10000 nM
Target C [6]
  IC50: > 10000 nM

## [2H]C([2H])([2H])N(c1ccc(-c2ccc(-c3cn[nH]c3)c3ncsc23)nn1)C1CC(C)(C)NC(C)(C)C1 [Compound 231]
MYB [1]
  IC50: 100 to 1000 nM
HTT [2]
  IC50: < 100 nM
HTT [3]; [7]
  IC50: 100 to 1000 nM
HTT [3]; [8]
  AC50: 100 to 1000 nM
HTT [3]; [9]
  IC50: 100 to 1000 nM
MYB [4]; [10]
  IC50: 100 to 1000 nM
MYB [4]; [8]
  AC50: 100 to 1000 nM
MYB [4]; [11]
  IC50: 100 to 1000 nM
SMN2
  IC50: < 100 nM
Target C [5]
  IC50: 100 to 1000 nM
Target C [6]
  IC50: 100 to 1000 nM

## Cn1cc(-c2ccc(-c3ccc(OC4CC(C)(C)NC(C)(C)C4)nn3)c3[nH]ncc23)cn1 [Compound 232]
MYB [1]
  IC50: 1000 to 10000 nM
HTT [2]
  IC50: 100 to 1000 nM
HTT [3]; [7]
  IC50: 1000 to 10000 nM
HTT [3]; [8]
  AC50: 100 to 1000 nM
HTT [3]; [9]
  IC50: 1000 to 10000 nM
MYB [4]; [10]
  IC50: 1000 to 10000 nM
MYB [4]; [8]
  AC50: 100 to 1000 nM
MYB [4]; [11]
  IC50: 1000 to 10000 nM
SMN2
  IC50: 100 to 1000 nM
Target C [5]
  IC50: 1000 to 10000 nM
Target C [6]
  IC50: 1000 to 10000 nM

## COc1cc(-c2ccc(-c3ccc(N(C)C4CC(C)(C)NC(C)(C)C4)nn3)c3ncsc23)cnn1 [Compound 233]
MYB [1]
  IC50: 100 to 1000 nM
HTT [2]
  IC50: 100 to 1000 nM
HTT [3]; [7]
  IC50: 100 to 1000 nM
HTT [3]; [8]
  AC50: 100 to 1000 nM
HTT [3]; [9]
  IC50: 100 to 1000 nM
MYB [4]; [10]
  IC50: 100 to 1000 nM
MYB [4]; [8]
  AC50: 100 to 1000 nM
MYB [4]; [11]
  IC50: 100 to 1000 nM
SMN2
  IC50: 100 to 1000 nM
Target C [5]
  IC50: 100 to 1000 nM
Target C [6]
  IC50: 100 to 1000 nM

## CN(c1ccc(-c2ccc(-c3cnnc(O)c3)c3scnc23)nn1)C1CC(C)(C)NC(C)(C)C1 [Compound 234]
MYB [1]
  IC50: 1000 to 10000 nM
HTT [2]
  IC50: 1000 to 10000 nM
HTT [3]; [7]
  IC50: > 10000 nM
HTT [3]; [8]
  AC50: > 10000 nM
HTT [3]; [9]
  IC50: > 10000 nM
MYB [4]; [10]
  IC50: > 10000 nM
MYB [4]; [8]
  AC50: > 10000 nM
MYB [4]; [11]
  IC50: > 10000 nM
SMN2
  IC50: 100 to 1000 nM
Target C [5]
  IC50: > 10000 nM
Target C [6]
  IC50: > 10000 nM

## CN1C[C@@H]2[C@H](C1)[C@H]2N(C)c1ccc(-c2ccc(-c3cn[nH]c3)c3ncsc23)nn1 [Compound 235]
MYB [1]
  IC50: 1000 to 10000 nM
HTT [2]
  IC50: 1000 to 10000 nM
HTT [3]; [7]
  IC50: > 10000 nM
HTT [3]; [8]
  AC50: > 10000 nM
HTT [3]; [9]
  IC50: > 10000 nM
MYB [4]; [10]
  IC50: > 10000 nM
MYB [4]; [8]
  AC50: > 10000 nM
MYB [4]; [11]
  IC50: > 10000 nM
SMN2
  IC50: 1000 to 10000 nM
Target C [5]
  IC50: > 10000 nM
Target C [6]
  IC50: 100 to 1000 nM

## c1n[nH]cc1-c1ccc(-c2ccc(NC3CNC3)nn2)c2[nH]ncc12 [Compound 237]
MYB [1]
  IC50: > 10000 nM
HTT [2]
  IC50: > 10000 nM
HTT [3]; [7]
  IC50: > 10000 nM
HTT [3]; [8]
  AC50: > 10000 nM
HTT [3]; [9]
  IC50: > 10000 nM
MYB [4]; [10]
  IC50: > 10000 nM
MYB [4]; [8]
  AC50: > 10000 nM
MYB [4]; [11]
  IC50: > 10000 nM
SMN2
  IC50: > 10000 nM
Target C [5]
  IC50: > 10000 nM
Target C [6]
  IC50: > 10000 nM
